# Results published in US20110201582A1, “METHOD AND COMPOSITION FOR TREATMENT OF SKIN CONDITIONS” (priority 2004, published 2011).
# “Also recorded” adds a separate entry of the source. Where a name gives a salt, the structure may show the parent alone.
# System: eczema, seborrheic dermatitis and allergic skin reactions
# Assay: Applicant's general experiments: compounds applied to the affected skin area alone or before a topical corticosteroid
# Assay type: in vivo, adult patient
# Details: for effectiveness in alleviating the symptoms: applied alone, with no steroid; for enhancement of effectiveness of the topical corticosteroid: applied to affected area prior to the topical corticosteroid, compared with topical corticosteroid alone; for effectiveness compared with hydrocortisone 2.5% alone: decongestant alone applied before hydrocortisone 0.5%
# Method: The experiments were conducted in order to try to treat these conditions as well as to try to enhance the performance of hydrocortisone and other topical corticosteroids in the treatment of these conditions.
# With respect to the use of compounds to try to enhance the effectiveness of topical corticosteroids, the experiments involved first applying to the affected area particular compounds and then shortly thereafter applying to the same affected area a topical corticosteroid. For example, compounds that were tried include eye drop solutions, nasal decongestant sprays and other kinds of compounds available over the counter or by prescription. Antihistamine and decongestant combinations were tried as a solution to be applied to the affected area prior to the application of the steroid. In addition, antihistamines alone (preceding the corticosteroid) and decongestants alone (preceding the corticosteroid) were tried. As stated above, antihistamines alone (without the corticosteroid) and decongestants alone (without the corticosteroid) were also tried.
# An increase in effectiveness is defined as greater alleviation of the dermatological symptoms of the condition or speedier alleviation of the dermatological symptoms of the condition or both.
# That is, the identical experiment was conducted for the same condition but without preceding (or following) the application of the corticosteroid cream with an application of any solution in according with the method of the present invention.
smiles,measurement,setting,value
c1ccc2c(CC3=NCCN3)cccc2c1 [naphazoline HCL],effectiveness in alleviating the symptoms,HCL,"works somewhat to alleviate dermatological symptoms, albeit not fantastically; also recorded: mildly effective alleviation"
same,enhancement of effectiveness of the topical corticosteroid,HCL,slightly greater than that of a topical corticosteroid alone; also recorded: only mild enhancement of effectiveness
same,effectiveness compared with hydrocortisone 2.5% alone,,performs better
CNC[C@H](O)c1cccc(O)c1 [phenylephrine HCL],effectiveness in alleviating the symptoms,HCL,"works somewhat to alleviate dermatological symptoms, albeit not fantastically; also recorded: mildly effective alleviation"
same,enhancement of effectiveness of the topical corticosteroid,,only mild enhancement of effectiveness
same,effectiveness compared with hydrocortisone 2.5% alone,,performs better
